Results: ChEMBL document CHEMBL1139249, “N,N-Dichloroaminosulfonic acids as novel topical antimicrobial agents” (Bioorg Med Chem Lett, 2009)
≈ marks a conversion by molar mass, not a printed value.

Key:
Candida albicans [1] = test: Antifungal activity against Candida albicans MCC 50319 after 16 to 20 hrs by CLSI standard method; assay type: functional
[2] = Cytotoxicity against mouse L929 cells; assay type: cell-based; conditions: read-out: CT50 (the source's name)
Escherichia coli [3] = test: Antibacterial activity against Escherichia coli MCC 80392 after 16 to 20 hrs by CLSI standard method; assay type: functional
[4] = Aqueous solubility at pH 4; assay type: physicochemical; conditions: aqueous solution
Staphylococcus aureus [5] = test: Antibacterial activity against Staphylococcus aureus MCC 91731 after 16 to 20 hrs by CLSI standard method; assay type: functional
[6] = Therapeutic index, ratio of CT50 for mouse L929 cells to MBC for Staphylococcus aureus; assay type: cell-based; conditions: read-out: TI
[7] = Therapeutic index, ratio of CT50 for mouse L929 cells to MFC for Candida albicans; assay type: cell-based; conditions: read-out: TI
[8] = Therapeutic index, ratio of CT50 for mouse L929 cells to MBC for Escherichia coli; assay type: cell-based; conditions: read-out: TI
Escherichia coli [9] = test: Antibacterial activity against Escherichia coli ATCC 25922 after 16 to 20 hrs by CLSI standard method; assay type: functional
Candida albicans [10] = test: Antifungal activity against Candida albicans ATCC 10231 after 16 to 20 hrs by CLSI standard method; assay type: functional
Staphylococcus aureus [11] = test: Antibacterial activity against Staphylococcus aureus ATCC 29213 after 16 to 20 hrs by CLSI standard method; assay type: functional

Compound | MFC (Candida albicans [1]) [µg/mL] | CC50 [2] [µg/mL] | MBC (Escherichia coli [3]) [µg/mL] | half-life [4] [days] | MBC (Staphylococcus aureus [5]) [µg/mL] | selectivity ratio [6] | selectivity ratio [7] | selectivity ratio [8] | MBC (Escherichia coli [9]) [µg/mL] | MFC (Candida albicans [10]) [µg/mL] | MBC (Staphylococcus aureus [11]) [µg/mL]
CC(C)(CS(=O)(=O)[O-])N(Cl)Cl.[Na+] | 32 | 1200 | 4 | > 200 | 1 | 8 | 2 | 8 | – | – | –
CC(C)(COC(=O)CCS(=O)(=O)O)N(Cl)Cl | 4 (≈ 13.6 µM) | 130 (≈ 442 µM) | – | 64 | 1 (≈ 3.4 µM) | 8 | 2 | 8 | 2 (≈ 6.8 µM) | – | –
CC(C)(CCS(=O)(=O)O)N(Cl)Cl | – | 1900 (≈ 8050 µM) | – | 174 | – | 8 | 2 | 8 | 4 (≈ 16.9 µM) | 16 (≈ 67.8 µM) | 4 (≈ 16.9 µM)
CC(C)(CP(=O)(O)O)N(Cl)Cl | – | 130 (≈ 586 µM) | – | 23 | – | 8 | 2 | 8 | 8 (≈ 36 µM) | 16 (≈ 72.1 µM) | 16 (≈ 72.1 µM)
CC(C)(CCCS(=O)(=O)O)N(Cl)Cl | > 128 | 640 (≈ 2560 µM) | 8 (≈ 32 µM) | 16 | 8 (≈ 32 µM) | 8 | 2 | 8 | – | – | –
CCOP(=O)(O)CC(C)(C)N(Cl)Cl | 32 (≈ 128 µM) | 80 (≈ 320 µM) | – | > 18 | 2 (≈ 8 µM) | 8 | 2 | 8 | – | – | –
CC(C)(CC(=O)OCCS(=O)(=O)O)N(Cl)Cl | – | 270 (≈ 918 µM) | – | > 95 | – | 8 | 2 | 8 | 2 (≈ 6.8 µM) | 64 (≈ 218 µM) | 2 (≈ 6.8 µM)
CC(=O)NS(=O)(=O)CC(C)(C)N(Cl)Cl | – | – | – | 44 | – | 8 | 2 | 8 | 2 (≈ 7.6 µM) | 64 (≈ 243 µM) | 1 (≈ 3.8 µM)
CC(C)(CS(=O)(=O)CCS(=O)(=O)O)N(Cl)Cl | – | 1820 (≈ 5790 µM) | – | > 95 | – | 8 | 2 | 8 | 4 (≈ 12.7 µM) | 64 (≈ 204 µM) | 8 (≈ 25.5 µM)
CC(C)(CS(=O)(=O)O)C(=O)OCC(C)(C)N(Cl)Cl | – | 840 (≈ 2610 µM) | – | 80 | – | 8 | 2 | 8 | 4 (≈ 12.4 µM) | 16 (≈ 49.7 µM) | 8 (≈ 24.8 µM)
